# Source: patent publication US12404239B2, “Modulators of BCL6 as ligand directed degraders” (Celgene Corporation, priority 2022, dated 2025)
# Target: T1, BCL6 (Homo sapiens, UniProt P41182)
# T1 construct: HiBiT-tag knocked into endogenous BCL6 locus using CRISPR; endogenous in cells; host or cells: DHL-4_BCL6_HiBiT cells (CRISPR knock-in)
# Assay: BCL6_HiBiT degradation assay (2 h)
# Assay type: cell-based
# Conditions: DHL-4_BCL6_HiBiT cells, read-out: YCon (% remaining maximal effect)
# Summary of the method: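 DHL-4 cells carrying CRISPR HiBiT knock-in at endogenous BCL6, treated 2 h at 37 °C with 10-point 3-fold dilutions from 1-10 μM. BCL6 level read by Nano-Glo HiBiT lytic luminescence normalized to DMSO; four-parameter fit gives degradation EC50 and Yconstant (% remaining at maximal effect).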
row,Percent BCL6 remaining at maximal degradation (Ycon),SMILES
1,< 20%,"C[C@@H]1CN(c2ncc(C#N)c(Nc3ccc4c(c3)CC(=O)N4C)n2)CC[C@H]1Nc1ccc2c(C3CCC(=O)NC3=O)nn(C)c2c1 (stereo partly drawn) [Example 113, 2-((3R,4R)-4-((3-(2,6-dioxopiperidin-3-yl)-1-methyl-1H-indazol-6-yl)amino)-3-methylpiperidin-1-yl)-4-((1-methyl-2-oxoindolin-5-yl)amino)pyrimidine-5-carbonitrile]"
2,< 20%,"CC(C)N1C(=O)Cc2cc(Nc3nc(N4CC[C@@H](Nc5ccc6c(C7CCC(=O)NC7=O)nn(C)c6c5)[C@H](C)C4)ncc3Cl)ccc21 (stereo partly drawn) [Example 115, 3-(6-(((3R,4R)-1-(5-chloro-4-((1-isopropyl-2-oxoindolin-5-yl)amino)pyrimidin-2-yl)-3-methylpiperidin-4-yl)amino)-1-methyl-1H-indazol-3-yl)piperidine-2,6-dione]"
3,< 20%,"C[C@@H]1CN(c2ncc(C#N)c(Nc3cc4c(cc3F)N(C)C(=O)C4)n2)CC[C@H]1Nc1ccc2c(C3CCC(=O)NC3=O)nn(C)c2c1 (stereo partly drawn) [Example 117, 2-((3R,4R)-4-((3-(2,6-dioxopiperidin-3-yl)-1-methyl-1H-indazol-6-yl)amino)-3-methylpiperidin-1-yl)-4-((6-fluoro-1-methyl-2-oxoindolin-5-yl)amino)pyrimidine-5-carbonitrile]"
4,< 20%,"C[C@@H]1CN(c2ncc(Cl)c(Nc3ccc4c(c3)CC(=O)N4CCCC(F)(F)F)n2)CC[C@H]1Nc1ccc2c(C3CCC(=O)NC3=O)nn(C)c2c1 (stereo partly drawn) [Example 119, 3-(6-(((3R,4R)-1-(5-chloro-4-((2-oxo-1-(4,4,4-trifluorobutyl)indolin-5-yl)amino)pyrimidin-2-yl)-3-methylpiperidin-4-yl)amino)-1-methyl-1H-indazol-3-yl)piperidine-2,6-dione]"
5,< 20%,"C[C@@H]1CN(c2ncc(Cl)c(Nc3ccc4c(c3)N(CCC(C)(C)O)C(=O)C4)n2)CC[C@H]1Nc1ccc2c(C3CCC(=O)NC3=O)nn(C)c2c1 (stereo partly drawn) [Example 120, 3-(6-(((3R,4R)-1-(5-chloro-4-((1-(3-hydroxy-3-methylbutyl)-2-oxoindolin-6-yl)amino)pyrimidin-2-yl)-3-methylpiperidin-4-yl)amino)-1-methyl-1H-indazol-3-yl)piperidine-2,6-dione]"
6,> 60%,"Cn1nc(C2CCC(=O)NC2=O)c2ccc(C3CCN(c4ncc(Cl)c(Nc5ccc6c(c5)CC(=O)N6)n4)CC3)cc21 (stereo not shown) [Example 124, 3-[6-[1-[5-chloro-4-[(2-oxoindolin-5-yl)amino]pyrimidin-2-yl]-4-piperidyl]-1-methyl-indazol-3-yl]piperidine-2,6-dione]"
7,< 20%,"CN1C(=O)Cc2cc(Nc3nc(N(C)C4CCN(c5ccc6c(C7CCC(=O)NC7=O)nn(C)c6c5)C(=O)C4)ncc3Cl)ccc21 (stereo not shown) [Example 127, 3-(6-(4-((5-chloro-4-((1-methyl-2-oxoindolin-5-yl)amino)pyrimidin-2-yl)(methyl)amino)-2-oxopiperidin-1-yl)-1-methyl-1H-indazol-3-yl)piperidine-2,6-dione]"

# More lines, now with the values behind:
row,SMILES,Percent BCL6 remaining at maximal degradation (Ycon)
1,"C[C@@H]1CN(c2ncc(Cl)c(Nc3ccc4c(c3)CC(=O)N4CC(C)(F)F)n2)CC[C@H]1Nc1ccc2c(C3CCC(=O)NC3=O)nn(C)c2c1 (stereo partly drawn) [Example 110, 3-(6-(((3R,4R)-1-(5-chloro-4-((1-(2,2-difluoropropyl)-2-oxoindolin-5-yl)amino)pyrimidin-2-yl)-3-methylpiperidin-4-yl)amino)-1-methyl-1H-indazol-3-yl)piperidine-2,6-dione]",< 20%
2,"C[C@@H]1CN(c2ncc(Cl)c(Nc3ccc4c(c3)CC(=O)N4)n2)CC[C@H]1Nc1ccc2c(C3CCC(=O)NC3=O)nn(C)c2c1 (stereo partly drawn) [Example 114, 3-(6-(((3R,4R)-1-(5-chloro-4-((2-oxoindolin-5-yl)amino)pyrimidin-2-yl)-3-methylpiperidin-4-yl)amino)-1-methyl-1H-indazol-3-yl)piperidine-2,6-dione]",< 20%
3,"C[C@@H]1CN(c2ncc(C#N)c(Nc3cc(F)c4c(c3)CC(=O)N4C)n2)CC[C@H]1Nc1ccc2c(C3CCC(=O)NC3=O)nn(C)c2c1 (stereo partly drawn) [Example 116, 2-((3R,4R)-4-((3-(2,6-dioxopiperidin-3-yl)-1-methyl-1H-indazol-6-yl)amino)-3-methylpiperidin-1-yl)-4-((7-fluoro-1-methyl-2-oxoindolin-5-yl)amino)pyrimidine-5-carbonitrile]",< 20%
4,"C[C@@H]1CN(c2ncc(C#N)c(Nc3ccc4c(c3F)CC(=O)N4C)n2)CC[C@H]1Nc1ccc2c(C3CCC(=O)NC3=O)nn(C)c2c1 (stereo partly drawn) [Example 118, 2-((3R,4R)-4-((3-(2,6-dioxopiperidin-3-yl)-1-methyl-1H-indazol-6-yl)amino)-3-methylpiperidin-1-yl)-4-((4-fluoro-1-methyl-2-oxoindolin-5-yl)amino)pyrimidine-5-carbonitrile]",< 20%
5,"C[C@@H]1CN(c2ncc(Cl)c(Nc3ccc4c(c3)CC(=O)N4CC(C)(C)F)n2)CC[C@H]1Nc1ccc2c(C3CCC(=O)NC3=O)nn(C)c2c1 (stereo partly drawn) [Example 121, 3-(6-(((3R,4R)-1-(5-chloro-4-((1-(2-fluoro-2-methylpropyl)-2-oxoindolin-5-yl)amino)pyrimidin-2-yl)-3-methylpiperidin-4-yl)amino)-1-methyl-1H-indazol-3-yl)piperidine-2,6-dione]",< 20%
6,"Cc1nc(N2CC[C@@H](Nc3ccc4c(C5CCC(=O)NC5=O)nn(C)c4c3)[C@H](C)C2)nc(Nc2ccc3c(c2)CC(=O)N3C)c1Cl (stereo partly drawn) [Example 122, 3-(6-(((3R,4R)-1-(5-chloro-4-methyl-6-((1-methyl-2-oxoindolin-5-yl)amino)pyrimidin-2-yl)-3-methylpiperidin-4-yl)amino)-1-methyl-1H-indazol-3-yl)piperidine-2,6-dione]",< 20%
7,"C[C@@H]1CN(c2nc(F)c(Cl)c(Nc3ccc4c(c3)CC(=O)N4C)n2)CC[C@H]1Nc1ccc2c(C3CCC(=O)NC3=O)nn(C)c2c1 (stereo partly drawn) [Example 123, 3-(6-(((3R,4R)-1-(5-chloro-4-fluoro-6-((1-methyl-2-oxoindolin-5-yl)amino)pyrimidin-2-yl)-3-methylpiperidin-4-yl)amino)-1-methyl-1H-indazol-3-yl)piperidine-2,6-dione]",< 20%
8,"CN1C(=O)Cc2cc(Nc3nc(N4CCC(c5ccc6c(C7CCC(=O)NC7=O)nn(C)c6c5)CC4)ncc3Cl)ccc21 (stereo not shown) [Example 125, 3-(6-(1-(5-Chloro-4-((1-methyl-2-oxoindolin-5-yl)amino)pyrimidin-2-yl)piperidin-4-yl)-1-methyl-1H-indazol-3-yl)piperidine-2,6-dione]",> 60%
9,"CN1C(=O)Cc2cc(Nc3nc(NC4CCN(c5ccc6c(C7CCC(=O)NC7=O)nn(C)c6c5)C(=O)C4)ncc3Cl)ccc21 (stereo not shown) [Example 126, 3-(6-(4-((5-chloro-4-((1-methyl-2-oxoindolin-5-yl)amino)pyrimidin-2-yl)amino)-2-oxopiperidin-1-yl)-1-methyl-1H-indazol-3-yl)piperidine-2,6-dione]",20 to 60%
